Laboratory results: publication PMC10949855 (Journal of veterinary pharmacology and therapeutics, 2022)

Tested on: healthy dogs
Assay: Sedation score
Type: in vivo, dogs (Beagles)
[1] = IV CRI 0.2 mg/kg + 0.2 mg/kg/hr for 8 hr, 0.5 hr
[2] = IV CRI 0.2 mg/kg + 0.2 mg/kg/hr for 8 hr, 1 hr
[3] = IV CRI 0.2 mg/kg + 0.2 mg/kg/hr for 8 hr, 1.5 hr
[4] = IV CRI 0.2 mg/kg + 0.2 mg/kg/hr for 8 hr, 2 hr
[5] = IV CRI 0.2 mg/kg + 0.2 mg/kg/hr for 8 hr, 3 hr
[6] = IV CRI 0.2 mg/kg + 0.2 mg/kg/hr for 8 hr, 4 hr
[7] = IV CRI 0.2 mg/kg + 0.2 mg/kg/hr for 8 hr, 5 hr
[8] = IV CRI 0.2 mg/kg + 0.2 mg/kg/hr for 8 hr, 6 hr
[9] = IV CRI 0.2 mg/kg + 0.2 mg/kg/hr for 8 hr, 7 hr
[10] = IV CRI 0.2 mg/kg + 0.2 mg/kg/hr for 8 hr, 8 hr
[11] = IV CRI 0.2 mg/kg + 0.2 mg/kg/hr for 8 hr, 9 hr
[12] = IV CRI 0.2 mg/kg + 0.2 mg/kg/hr for 8 hr, 10 hr
[13] = IV CRI 0.2 mg/kg + 0.2 mg/kg/hr for 8 hr, 11 hr
[14] = IV CRI 0.2 mg/kg + 0.2 mg/kg/hr for 8 hr, 12 hr
[15] = IV CRI 0.2 mg/kg + 0.2 mg/kg/hr for 8 hr, 24 hr
[16] = IV inhibitors, 0.4 mg/kg IV after CYP inhibitors, 0.5 hr
[17] = IV inhibitors, 0.4 mg/kg IV after CYP inhibitors, 1 hr
[18] = IV inhibitors, 0.4 mg/kg IV after CYP inhibitors, 1.5 hr
[19] = IV inhibitors, 0.4 mg/kg IV after CYP inhibitors, 2 hr
[20] = IV inhibitors, 0.4 mg/kg IV after CYP inhibitors, 3 hr
[21] = IV inhibitors, 0.4 mg/kg IV after CYP inhibitors, 4 hr
[22] = IV inhibitors, 0.4 mg/kg IV after CYP inhibitors, 5 hr
[23] = IV inhibitors, 0.4 mg/kg IV after CYP inhibitors, 6 hr
[24] = IV inhibitors, 0.4 mg/kg IV after CYP inhibitors, 7 hr
[25] = IV inhibitors, 0.4 mg/kg IV after CYP inhibitors, 8 hr
[26] = IV inhibitors, 0.4 mg/kg IV after CYP inhibitors, 9 hr
[27] = IV inhibitors, 0.4 mg/kg IV after CYP inhibitors, 10 hr
[28] = IV inhibitors, 0.4 mg/kg IV after CYP inhibitors, 11 hr
[29] = IV inhibitors, 0.4 mg/kg IV after CYP inhibitors, 12 hr
[30] = IV inhibitors, 0.4 mg/kg IV after CYP inhibitors, 24 hr

## Oc1ccc2c(c1)[C@@]13CCCC[C@@]1(O)[C@@H](C2)N(CC1CCC1)CC3 [butorphanol]
[1]
  number of dogs with sedation score 0: 0
  number of dogs with sedation score 1: 3
  number of dogs with sedation score 2: 2
  number of dogs with sedation score 3: 0
[2]
  number of dogs with sedation score 0: 0
  number of dogs with sedation score 1: 3
  number of dogs with sedation score 2: 1
  number of dogs with sedation score 3: 1
[3]
  number of dogs with sedation score 0: 0
  number of dogs with sedation score 1: 3
  number of dogs with sedation score 2: 1
  number of dogs with sedation score 3: 1
[4]
  number of dogs with sedation score 0: 0
  number of dogs with sedation score 1: 3
  number of dogs with sedation score 2: 2
  number of dogs with sedation score 3: 0
[5]
  number of dogs with sedation score 0: 0
  number of dogs with sedation score 1: 3
  number of dogs with sedation score 2: 2
  number of dogs with sedation score 3: 0
[6]
  number of dogs with sedation score 0: 0
  number of dogs with sedation score 1: 4
  number of dogs with sedation score 2: 1
  number of dogs with sedation score 3: 0
[7]
  number of dogs with sedation score 0: 0
  number of dogs with sedation score 1: 4
  number of dogs with sedation score 2: 1
  number of dogs with sedation score 3: 0
[8]
  number of dogs with sedation score 0: 0
  number of dogs with sedation score 1: 4
  number of dogs with sedation score 2: 1
  number of dogs with sedation score 3: 0
[9]
  number of dogs with sedation score 0: 0
  number of dogs with sedation score 1: 4
  number of dogs with sedation score 2: 1
  number of dogs with sedation score 3: 0
[10]
  number of dogs with sedation score 0: 0
  number of dogs with sedation score 1: 3
  number of dogs with sedation score 2: 2
  number of dogs with sedation score 3: 0
[11]
  number of dogs with sedation score 0: 0
  number of dogs with sedation score 1: 5
  number of dogs with sedation score 2: 0
  number of dogs with sedation score 3: 0
[12]
  number of dogs with sedation score 0: 0
  number of dogs with sedation score 1: 5
  number of dogs with sedation score 2: 0
  number of dogs with sedation score 3: 0
[13]
  number of dogs with sedation score 0: 2
  number of dogs with sedation score 1: 3
  number of dogs with sedation score 2: 0
  number of dogs with sedation score 3: 0
[14]
  number of dogs with sedation score 0: 4
  number of dogs with sedation score 1: 1
  number of dogs with sedation score 2: 0
  number of dogs with sedation score 3: 0
[15]
  number of dogs with sedation score 0: 5
  number of dogs with sedation score 1: 0
  number of dogs with sedation score 2: 0
  number of dogs with sedation score 3: 0
IV bolus 0.4 mg/kg IV
  time with moderate sedation or higher (sedation score >1) in at least one dog: 1.5 to 2 h
IV bolus 0.4 mg/kg, 0.5 hr
  number of dogs with sedation score 0: 0
  number of dogs with sedation score 1: 6
  number of dogs with sedation score 2: 0
  number of dogs with sedation score 3: 0
IV bolus 0.4 mg/kg, 1 hr
  number of dogs with sedation score 0: 0
  number of dogs with sedation score 1: 6
  number of dogs with sedation score 2: 0
  number of dogs with sedation score 3: 0
IV bolus 0.4 mg/kg, 1.5 hr
  number of dogs with sedation score 0: 0
  number of dogs with sedation score 1: 5
  number of dogs with sedation score 2: 1
  number of dogs with sedation score 3: 0
IV bolus 0.4 mg/kg, 2 hr
  number of dogs with sedation score 0: 0
  number of dogs with sedation score 1: 5
  number of dogs with sedation score 2: 1
  number of dogs with sedation score 3: 0
IV bolus 0.4 mg/kg, 3 hr
  number of dogs with sedation score 0: 0
  number of dogs with sedation score 1: 6
  number of dogs with sedation score 2: 0
  number of dogs with sedation score 3: 0
IV bolus 0.4 mg/kg, 4 hr
  number of dogs with sedation score 0: 1
  number of dogs with sedation score 1: 5
  number of dogs with sedation score 2: 0
  number of dogs with sedation score 3: 0
IV bolus 0.4 mg/kg, 5 hr
  number of dogs with sedation score 0: 1
  number of dogs with sedation score 1: 5
  number of dogs with sedation score 2: 0
  number of dogs with sedation score 3: 0
IV bolus 0.4 mg/kg, 6 hr
  number of dogs with sedation score 0: 5
  number of dogs with sedation score 1: 1
  number of dogs with sedation score 2: 0
  number of dogs with sedation score 3: 0
IV bolus 0.4 mg/kg, 7 hr
  number of dogs with sedation score 0: 5
  number of dogs with sedation score 1: 1
  number of dogs with sedation score 2: 0
  number of dogs with sedation score 3: 0
IV bolus 0.4 mg/kg, 8 hr
  number of dogs with sedation score 0: 6
  number of dogs with sedation score 1: 0
  number of dogs with sedation score 2: 0
  number of dogs with sedation score 3: 0
IV bolus 0.4 mg/kg, 9 hr
  number of dogs with sedation score 0: 6
  number of dogs with sedation score 1: 0
  number of dogs with sedation score 2: 0
  number of dogs with sedation score 3: 0
IV bolus 0.4 mg/kg, 10 hr
  number of dogs with sedation score 0: 6
  number of dogs with sedation score 1: 0
  number of dogs with sedation score 2: 0
  number of dogs with sedation score 3: 0
IV bolus 0.4 mg/kg, 11 hr
  number of dogs with sedation score 0: 6
  number of dogs with sedation score 1: 0
  number of dogs with sedation score 2: 0
  number of dogs with sedation score 3: 0
IV bolus 0.4 mg/kg, 12 hr
  number of dogs with sedation score 0: 6
  number of dogs with sedation score 1: 0
  number of dogs with sedation score 2: 0
  number of dogs with sedation score 3: 0
IV bolus 0.4 mg/kg, 24 hr
  number of dogs with sedation score 0: 4
  number of dogs with sedation score 1: 0
  number of dogs with sedation score 2: 0
  number of dogs with sedation score 3: 0
[16]
  number of dogs with sedation score 0: 0
  number of dogs with sedation score 1: 6
  number of dogs with sedation score 2: 0
  number of dogs with sedation score 3: 0
[17]
  number of dogs with sedation score 0: 0
  number of dogs with sedation score 1: 6
  number of dogs with sedation score 2: 0
  number of dogs with sedation score 3: 0
[18]
  number of dogs with sedation score 0: 0
  number of dogs with sedation score 1: 6
  number of dogs with sedation score 2: 0
  number of dogs with sedation score 3: 0
[19]
  number of dogs with sedation score 0: 0
  number of dogs with sedation score 1: 4
  number of dogs with sedation score 2: 2
  number of dogs with sedation score 3: 0
[20]
  number of dogs with sedation score 0: 0
  number of dogs with sedation score 1: 5
  number of dogs with sedation score 2: 1
  number of dogs with sedation score 3: 0
[21]
  number of dogs with sedation score 0: 3
  number of dogs with sedation score 1: 3
  number of dogs with sedation score 2: 0
  number of dogs with sedation score 3: 0
[22]
  number of dogs with sedation score 0: 6
  number of dogs with sedation score 1: 0
  number of dogs with sedation score 2: 0
  number of dogs with sedation score 3: 0
[23]
  number of dogs with sedation score 0: 6
  number of dogs with sedation score 1: 0
  number of dogs with sedation score 2: 0
  number of dogs with sedation score 3: 0
[24]
  number of dogs with sedation score 0: 6
  number of dogs with sedation score 1: 0
  number of dogs with sedation score 2: 0
  number of dogs with sedation score 3: 0
[25]
  number of dogs with sedation score 0: 6
  number of dogs with sedation score 1: 0
  number of dogs with sedation score 2: 0
  number of dogs with sedation score 3: 0
[26]
  number of dogs with sedation score 0: 6
  number of dogs with sedation score 1: 0
  number of dogs with sedation score 2: 0
  number of dogs with sedation score 3: 0
[27]
  number of dogs with sedation score 0: 6
  number of dogs with sedation score 1: 0
  number of dogs with sedation score 2: 0
  number of dogs with sedation score 3: 0
[28]
  number of dogs with sedation score 0: 6
  number of dogs with sedation score 1: 0
  number of dogs with sedation score 2: 0
  number of dogs with sedation score 3: 0
[29]
  number of dogs with sedation score 0: 6
  number of dogs with sedation score 1: 0
  number of dogs with sedation score 2: 0
  number of dogs with sedation score 3: 0
[30]
  number of dogs with sedation score 0: 6
  number of dogs with sedation score 1: 0
  number of dogs with sedation score 2: 0
  number of dogs with sedation score 3: 0
SC 0.4 mg/kg
  time with moderate sedation or greater in at least 1 dog: 1.5 to 2 h
SC 0.4 mg/kg, 0.5 hr
  number of dogs with sedation score 0: 0
  number of dogs with sedation score 1: 6
  number of dogs with sedation score 2: 0
  number of dogs with sedation score 3: 0
SC 0.4 mg/kg, 1 hr
  number of dogs with sedation score 0: 0
  number of dogs with sedation score 1: 6
  number of dogs with sedation score 2: 0
  number of dogs with sedation score 3: 0
SC 0.4 mg/kg, 1.5 hr
  number of dogs with sedation score 0: 0
  number of dogs with sedation score 1: 5
  number of dogs with sedation score 2: 1
  number of dogs with sedation score 3: 0
SC 0.4 mg/kg, 2 hr
  number of dogs with sedation score 0: 0
  number of dogs with sedation score 1: 5
  number of dogs with sedation score 2: 1
  number of dogs with sedation score 3: 0
SC 0.4 mg/kg, 3 hr
  number of dogs with sedation score 0: 1
  number of dogs with sedation score 1: 5
  number of dogs with sedation score 2: 0
  number of dogs with sedation score 3: 0
SC 0.4 mg/kg, 4 hr
  number of dogs with sedation score 0: 2
  number of dogs with sedation score 1: 4
  number of dogs with sedation score 2: 0
  number of dogs with sedation score 3: 0
SC 0.4 mg/kg, 5 hr
  number of dogs with sedation score 0: 2
  number of dogs with sedation score 1: 4
  number of dogs with sedation score 2: 0
  number of dogs with sedation score 3: 0
SC 0.4 mg/kg, 6 hr
  number of dogs with sedation score 0: 4
  number of dogs with sedation score 1: 2
  number of dogs with sedation score 2: 0
  number of dogs with sedation score 3: 0
SC 0.4 mg/kg, 7 hr
  number of dogs with sedation score 0: 6
  number of dogs with sedation score 1: 0
  number of dogs with sedation score 2: 0
  number of dogs with sedation score 3: 0
SC 0.4 mg/kg, 8 hr
  number of dogs with sedation score 0: 6
  number of dogs with sedation score 1: 0
  number of dogs with sedation score 2: 0
  number of dogs with sedation score 3: 0
SC 0.4 mg/kg, 9 hr
  number of dogs with sedation score 0: 6
  number of dogs with sedation score 1: 0
  number of dogs with sedation score 2: 0
  number of dogs with sedation score 3: 0
SC 0.4 mg/kg, 10 hr
  number of dogs with sedation score 0: 6
  number of dogs with sedation score 1: 0
  number of dogs with sedation score 2: 0
  number of dogs with sedation score 3: 0
SC 0.4 mg/kg, 11 hr
  number of dogs with sedation score 0: 6
  number of dogs with sedation score 1: 0
  number of dogs with sedation score 2: 0
  number of dogs with sedation score 3: 0
SC 0.4 mg/kg, 12 hr
  number of dogs with sedation score 0: 6
  number of dogs with sedation score 1: 0
  number of dogs with sedation score 2: 0
  number of dogs with sedation score 3: 0
SC 0.4 mg/kg, 24 hr
  number of dogs with sedation score 0: 6
  number of dogs with sedation score 1: 0
  number of dogs with sedation score 2: 0
  number of dogs with sedation score 3: 0
